{"source": "patent US20100041089A1", "about": "“IMPROVED METHOD FOR DETECTING CHEMICAL […]” (priority 2006, published 2010)", "tested_on": "yeast genes (expressed mRNA)", "assay": "DNA chip measurement of expressed mRNA of yeast genes after culture with a toxic chemical substance", "format": "cell-based, Saccharomyces cerevisiae S288C", "how_it_was_run": "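Fluorescence ratio, treated over untreated, read by chip scanner; ratio of two or more counted significant. Cells: S288C yeast, YPD, 25° C, chemical added at log phase for 2 h at growth-inhibiting, sublethal level. Cy3/Cy5-labeled cDNA from oligo-dT-purified mRNA.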", "data": [{"smiles": "CN(C)C(=S)SSC(=S)N(C)C", "note": "[(10), Tetramethylthiuram disulfide]", "values": [{"measurement": "The level of expressed mRNA in the presence of chemical substance/The level of expressed mRNA in the absence of chemical substance", "setting": "yeast gene YJL152W, cultured two hours with substance", "value": 1.0}, {"measurement": "The level of expressed mRNA in the presence of chemical substance/The level of expressed mRNA in the absence of chemical substance", "setting": "yeast gene YJL161W, cultured two hours with substance", "value": 2.1}, {"measurement": "The level of expressed mRNA in the presence of chemical substance/The level of expressed mRNA in the absence of chemical substance", "setting": "yeast gene YJL171C, cultured two hours with substance", "value": 1.7}, {"measurement": "The level of expressed mRNA in the presence of chemical substance/The level of expressed mRNA in the absence of chemical substance", "setting": "yeast gene YJL186W, cultured two hours with substance", "value": 0.5}, {"measurement": "The level of expressed mRNA in the presence of chemical substance/The level of expressed mRNA in the absence of chemical substance", "setting": "yeast gene YJR008W, cultured two hours with substance", "value": 1.9}, {"measurement": "The level of expressed mRNA in the presence of chemical substance/The level of expressed mRNA in the absence of chemical substance", "setting": "yeast gene YJR010W", "value": 11.1}, {"measurement": "The level of expressed mRNA in the presence of chemical substance/The level of expressed mRNA in the absence of chemical substance", "setting": "yeast gene YJR054W, cultured two hours with substance", "value": 0.6}, {"measurement": "The level of expressed mRNA in the presence of chemical substance/The level of expressed mRNA in the absence of chemical substance", "setting": "yeast gene YJR155W", "value": 18.8}, {"measurement": "The level of expressed mRNA in the presence of chemical substance/The level of expressed mRNA in the absence of chemical substance", "setting": "yeast gene YJR155W, cultured for two hours with substance", "value": 18.8}, {"measurement": "The level of expressed mRNA in the presence of chemical substance/The level of expressed mRNA in the absence of chemical substance", "setting": "yeast gene YKL070W", "value": 11.0}, {"measurement": "The level of expressed mRNA in the presence of chemical substance/The level of expressed mRNA in the absence of chemical substance", "setting": "yeast gene YKL071W, cultured two hours with substance", "value": 109.2}, {"measurement": "The level of expressed mRNA in the presence of chemical substance/The level of expressed mRNA in the absence of chemical substance", "setting": "yeast gene YKL086W, cultured two hours with substance", "value": 20.5}, {"measurement": "The level of expressed mRNA in the presence of chemical substance/The level of expressed mRNA in the absence of chemical substance", "setting": "yeast gene YKL151C, cultured two hours with substance", "value": 3.5}, {"measurement": "The level of expressed mRNA in the presence of chemical substance/The level of expressed mRNA in the absence of chemical substance", "setting": "yeast gene YKL153W, cultured two hours with substance", "value": 1.4}, {"measurement": "The level of expressed mRNA in the presence of chemical substance/The level of expressed mRNA in the absence of chemical substance", "setting": "yeast gene YKL195W, cultured two hours with substance", "value": 2.1}, {"measurement": "The level of expressed mRNA in the presence of chemical substance/The level of expressed mRNA in the absence of chemical substance", "setting": "yeast gene YKR076W", "value": 43.1}, {"measurement": "The level of expressed mRNA in the presence of chemical substance/The level of expressed mRNA in the absence of chemical substance", "setting": "yeast gene YKR091W, cultured two hours with substance", "value": 1.6}, {"measurement": "The level of expressed mRNA in the presence of chemical substance/The level of expressed mRNA in the absence of chemical substance", "setting": "yeast gene YLL060C (detoxification protein gene)", "value": 23.2}, {"measurement": "The level of expressed mRNA in the presence of chemical substance/The level of expressed mRNA in the absence of chemical substance", "setting": "yeast gene YLL060C (stress protein genes)", "value": 23.2}, {"measurement": "The level of expressed mRNA in the presence of chemical substance/The level of expressed mRNA in the absence of chemical substance", "setting": "yeast gene YLR054C, cultured two hours with substance", "value": 1.1}, {"measurement": "The level of expressed mRNA in the presence of chemical substance/The level of expressed mRNA in the absence of chemical substance", "setting": "yeast gene YLR108C", "value": 10.4}, {"measurement": "The level of expressed mRNA in the presence of chemical substance/The level of expressed mRNA in the absence of chemical substance", "setting": "yeast gene YLR149C, cultured two hours with substance", "value": 5.2}, {"measurement": "The level of expressed mRNA in the presence of chemical substance/The level of expressed mRNA in the absence of chemical substance", "setting": "yeast gene YLR152C, cultured two hours with substance", "value": 1.1}, {"measurement": "The level of expressed mRNA in the presence of chemical substance/The level of expressed mRNA in the absence of chemical substance", "setting": "yeast gene YLR194C, cultured two hours with substance", "value": 1.1}, {"measurement": "The level of expressed mRNA in the presence of chemical substance/The level of expressed mRNA in the absence of chemical substance", "setting": "yeast gene YLR217W, cultured two hours with substance", "value": 8.2}, {"measurement": "The level of expressed mRNA in the presence of chemical substance/The level of expressed mRNA in the absence of chemical substance", "setting": "yeast gene YLR324W, cultured two hours with substance", "value": 1.4}, {"measurement": "The level of expressed mRNA in the presence of chemical substance/The level of expressed mRNA in the absence of chemical substance", "setting": "yeast gene YLR350W, cultured two hours with substance", "value": 1.4}, {"measurement": "The level of expressed mRNA in the presence of chemical substance/The level of expressed mRNA in the absence of chemical substance", "setting": "yeast gene YLR387C, cultured two hours with substance", "value": 3.0}, {"measurement": "The level of expressed mRNA in the presence of chemical substance/The level of expressed mRNA in the absence of chemical substance", "setting": "yeast gene YLR460C, cultured two hours with substance", "value": 31.6}, {"measurement": "The level of expressed mRNA in the presence of chemical substance/The level of expressed mRNA in the absence of chemical substance", "setting": "yeast gene YML117W, cultured two hours with substance", "value": 1.4}, {"measurement": "The level of expressed mRNA in the presence of chemical substance/The level of expressed mRNA in the absence of chemical substance", "setting": "yeast gene YML131W", "value": 17.7}, {"measurement": "The level of expressed mRNA in the presence of chemical substance/The level of expressed mRNA in the absence of chemical substance", "setting": "yeast gene YMR009W, cultured two hours with substance", "value": 2.2}, {"measurement": "The level of expressed mRNA in the presence of chemical substance/The level of expressed mRNA in the absence of chemical substance", "setting": "yeast gene YMR034C, cultured two hours with substance", "value": 2.7}, {"measurement": "The level of expressed mRNA in the presence of chemical substance/The level of expressed mRNA in the absence of chemical substance", "setting": "yeast gene YMR067C, cultured two hours with substance", "value": 3.5}, {"measurement": "The level of expressed mRNA in the presence of chemical substance/The level of expressed mRNA in the absence of chemical substance", "setting": "yeast gene YMR090W, cultured two hours with substance", "value": 6.1}, {"measurement": "The level of expressed mRNA in the presence of chemical substance/The level of expressed mRNA in the absence of chemical substance", "setting": "yeast gene YMR095C, cultured two hours with substance", "value": 1.4}, {"measurement": "The level of expressed mRNA in the presence of chemical substance/The level of expressed mRNA in the absence of chemical substance", "setting": "yeast gene YMR097C, cultured two hours with substance", "value": 2.1}, {"measurement": "The level of expressed mRNA in the presence of chemical substance/The level of expressed mRNA in the absence of chemical substance", "setting": "yeast gene YMR102C, cultured two hours with substance", "value": 2.6}, {"measurement": "The level of expressed mRNA in the presence of chemical substance/The level of expressed mRNA in the absence of chemical substance", "setting": "yeast gene YMR107W, cultured two hours with substance", "value": 17.1}, {"measurement": "The level of expressed mRNA in the presence of chemical substance/The level of expressed mRNA in the absence of chemical substance", "setting": "yeast gene YMR140W, cultured two hours with substance", "value": 2.3}, {"measurement": "The level of expressed mRNA in the presence of chemical substance/The level of expressed mRNA in the absence of chemical substance", "setting": "yeast gene YMR180C, cultured two hours with substance", "value": 2.2}, {"measurement": "The level of expressed mRNA in the presence of chemical substance/The level of expressed mRNA in the absence of chemical substance", "setting": "yeast gene YMR184W, cultured two hours with substance", "value": 0.9}, {"measurement": "The level of expressed mRNA in the presence of chemical substance/The level of expressed mRNA in the absence of chemical substance", "setting": "yeast gene YMR191W, cultured two hours with substance", "value": 3.5}, {"measurement": "The level of expressed mRNA in the presence of chemical substance/The level of expressed mRNA in the absence of chemical substance", "setting": "yeast gene YMR251W, cultured two hours with substance", "value": 11.6}, {"measurement": "The level of expressed mRNA in the presence of chemical substance/The level of expressed mRNA in the absence of chemical substance", "setting": "yeast gene YMR295C, cultured two hours with substance", "value": 0.8}, {"measurement": "The level of expressed mRNA in the presence of chemical substance/The level of expressed mRNA in the absence of chemical substance", "setting": "yeast gene YMR316W, cultured two hours with substance", "value": 3.0}, {"measurement": "The level of expressed mRNA in the presence of chemical substance/The level of expressed mRNA in the absence of chemical substance", "setting": "yeast gene YMR322C, cultured two hours with substance", "value": 10.3}, {"measurement": "The level of expressed mRNA in the presence of chemical substance/The level of expressed mRNA in the absence of chemical substance", "setting": "yeast gene YNL044W, cultured two hours with substance", "value": 0.8}, {"measurement": "The level of expressed mRNA in the presence of chemical substance/The level of expressed mRNA in the absence of chemical substance", "setting": "yeast gene YNL074C, cultured two hours with substance", "value": 2.0}]}]}
